Data as given in patent US20090176743A1 (priority 2005, published 2009).
Entries after “also recorded” stand apart in the source; their conditions may differ.

Assays:
ICP0^− virus (n212) = assay type: cell-based, HSV-1; settings: for effect of combined arginine and methionine deprivation on plating efficiency of ICP0- virus: three days in media containing all combinations of arginine, methionine and glutamine (FIG. 15); for effect of deprivation/refeeding on plating efficiency of ICP0- virus: 42 h in medium lacking the amino acid, normal medium 9 h, then n212 (FIG. 9)
Protocol: Like isoleucine deprivation, serum starvation is a method commonly used to synchronize cells to G1 phase of the cell cycle. We then replaced the media with normal growth medium, infected cells with wild type (KOS) or ICP0^− virus (n212), and analyzed cells for cellular DNA content at 3-h intervals (FIG. 7).
We infected the monolayers with an ICP0^− virus (n212) 9 h after the addition of normal medium (FIG. 8).
Media were replaced with normal growth medium, and after a 9-h incubation, monolayers were infected with ICP0^− (n212).
Cells were then infected with wild type or ICPO-virus to determine plating efficiency as described herein. […] In order to determine the role of isoleucine in these experiments, monolayers of cells were incubated for 42 hours in normal medium (Gln+ Ile+) or media lacking Ile, Gln, or both. Cells were then infected with wild type or ICP0^− virus to determine plating efficiency as described herein.
For these experiments, monolayers were incubated for 1-5 days in the absence of each of the 15 amino acids present in DMEM. Cells were then infected with wild type or ICPO-virus to determine plating efficiency as described herein.
Cells were then infected with wild type or ICPO-virus to determine plating efficiency as described herein.
A. Ile deprivation and serum starvation. DMEM was prepared by dissolving all components individually, except Ile and Gln, in water according to Invitrogen's formulation for DMEM (catalog #11965) with 3 substitutions: 200 mg/l calcium chloride (anhydrous) for 264.92 mg/l calcium chloride dihydrate, 48 mg/l L-cystine for 63 mg/l L-cystine dihydrochloride, and 72 mg/l L-tyrosine for 104 mg/l L-tyrosine disodium salt, dihydrate. Medium was sterilized by passage through a 0.22 μm filter. Ile and Gln were added as needed, not more than two days prior to use, at final concentrations of 0.802 or 2 mM, respectively.
Sixty-mm petri plates were seeded with 5×10^5 cells/plate and incubated 24 h at 37° C. For Ile deprivation experiments, medium was removed and monolayers were washed with warm Hanks' Balanced Salt Solution (HBSS) (37° C.) and overlaid with 4 ml warm Ile-free DMEM with 10% dialyzed FBS and 0 or 2 mM Gln. For serum starvation experiments, medium was removed and monolayers were washed with warm HBSS and overlaid with 4 ml warm serum-free DMEM with 0.802 mM Ile and 0 or 2 mM Gln. Monolayers in Ile- or serum-free media were incubated 42 h at 37° C. Media were replaced with warm DMEM containing 10% non-dialyzed FBS, 0.802 Ile, and 2 mM Gln. At 3-h intervals monolayers were infected with wild-type or ICP0-viruses to determine plating efficiency or analyzed for cellular DNA content by flow cytometry as described below.
Infections to determine plating efficiency. Vero cell monolayers in 35-, 60-, and 100-mm plates were infected with volumes of 200 μl, 400 μl, or 2 ml/plate, respectively, with 5, 10, 20, 40, or 100 PFU/plate. For all experiments except Ile deprivation and serum starvation, titers were determined on 24-h-old Vero cell monolayers that had been seeded at a concentration of 1.5×10^5 Vero cells/35-mm plate and incubated at 37° C. […] Plates were incubated at 37° C. and shaken every 15 minutes for 1 h. Two, 4, or 10 ml of DMEM containing 5% FBS and 0.5% methyl cellulose was added to 35-, 60-, and 100-mm plates, respectively, and monolayers were incubated 3-5 days at 37° C. to allow plaques to form. Medium was aspirated, cells were stained with crystal violet, and plaques were counted.

[1] = system: wild-type virus latent in mouse trigeminal ganglia; assay: Mouse ocular/trigeminal ganglia (TG) cell culture model of reactivation from latency; assay type: cell-based, HSV-1
Protocol: (For details on the model, see, for example, Leib et al., J. Virol. 63:759-768 (1989), Halford et al., J. Virol. 74:5957-5967. (2000), and Halford et al., J. Virol. 75:3240-3249 (2001)). For this experiment, mice were infected with the wild-type virus and 30 days later the trigeminal ganglia (TG) were removed and incubated in 3 24-well plates in medium containing acyclovir (ACV). As indicated below the x-axis of FIG. 16, on day 7 the acyclovir was removed. On day 11, 1 24-well plate was treated by: washing once with HBSS and replacing with Gln-free medium supplemented with 10% dialyzed FBS (red); washing once with HBSS and replacing with Gln-containing medium supplemented with 10% dialyzed FBS (green); or 3-hour incubation at 43° C. followed by replacement of medium with fresh medium (blue). On day 13, Gln-free and Gln-containing medium with dialyzed FBS was replaced with medium containing Gln and 10% normal FBS. On day 16, the 2 plates not previously heat shocked were incubated for 3 hours at 43° C. followed by replacement of medium with fresh medium. Starting on day 10, 10% of the volume of each well was transferred daily to 1 well of a 96-well plate previously seeded with Vero cells. After incubation at 37° C. for 7 days, monolayers of Vero cells in the 96-well plates were examined by light microscopy for cytopathic effect. […]

HSV-1 (KOS strain) = assay: Heat-stress reactivation of latent HSV in mice treated with glutamine (Example 5); assay type: in vivo, mouse; settings: intraperitoneally or orally, heat stress 43° C. water 10 minutes
Protocol: The strain of HSV and the method of propagation can be as described in Example 1.
The mice can be infected by, e.g., the topical ocular route, and the establishment of a corneal infection can be documented by slit lamp examination and ocular swabs on day 3 after infection. Only animals which are successfully infected are retained for use in these experiments. Thirty days after infection, groups of latently infected and uninfected mice are treated with the glutamine composition. […] The mice are treated one day before heat stress and the day of the heat stress.
The glutamine composition can be given intraperitoneally in some groups of mice and orally in others. This treatment can be continued on the day the animals are heat stressed by immersion into 43° C. water for 10 minutes. Twenty-four hours after the hyperthermic stress, the eyes are swabbed to culture any infectious virus, and the mice killed to collect the trigeminal ganglia. Ocular swabs are incubated in culture medium which is then transferred to Vero cell monolayers in 96 well culture plates. Units of infectious herpesvirus are recorded as units of cytopathic effect over a period of seven days. […] The units of cytopathic effect are recorded over a seven day incubation period. […]

ICP0 promoter-CAT [2] = assay: Promoter-CAT expression in Vero cells after Ile deprivation/refeeding; assay type: cell-based, HSV-1; settings: 0-6 hours post-release
Protocol: (§1) Vero cells and NB41A3 cells (mouse neuroblastoma cells) were treated by Ile deprivation/refeeding as in the previous experiment. The expression of viral gene promoters was then analyzed. Promoter-chloramphenicol acetyltransferase (CAT) expression from plasmids was measured following transfection of Vero cells treated by Ile-deprivation/refeeding. ICP0 and ICP4 promoter-CAT expression increased 6- or 4-fold, respectively, at early times (0-6 hours post-release) then decreased through 10 hours post-release. In cells from the mouse neuroblastoma cell line, NB41A3, ICP0, ICP4, and ICP22/47 promoter-CAT expression was increased 6-, 10-, or 5-fold, respectively.

ICP4 promoter-CAT [3] = assay: as above; assay type: cell-based, HSV-1; settings: 0-6 hours post-release
Protocol: as §1

ICP0 promoter-CAT [4] = assay: Promoter-CAT expression in NB41A3 cells after Ile deprivation/refeeding; assay type: cell-based, HSV-1; settings: NB41A3 mouse neuroblastoma cells
Protocol: as §1

ICP22/47 promoter-CAT = assay: as above; assay type: cell-based, HSV-1; settings: NB41A3 mouse neuroblastoma cells
Protocol: as §1

ICP4 promoter-CAT [5] = assay: as above; assay type: cell-based, HSV-1; settings: NB41A3 mouse neuroblastoma cells
Protocol: as §1

ICP0^− (7134) virus = settings: Ile-free medium 42 hours, refeeding; first 8 h post-release; cited from earlier work
wt (KOS) virus = settings: Ile-free medium 42 hours, refeeding; all time points; cited from earlier work
HSV = settings: presence of L-lysine; cited from earlier work

**Q.** With CSCC[C@H](N)C(=O)O [methionine] as the compound, how does the “effect of combined arginine and methionine deprivation on plating efficiency of ICP0- virus” value (ICP0^− virus (n212)) read?
**A.** synergistic effect

**Q.** For N=C(N)NCCC[C@H](N)C(=O)O [arginine], which “effect of combined arginine and methionine deprivation on plating efficiency of ICP0- virus” value (ICP0^− virus (n212)) is on record?
**A.** synergistic effect

**Q.** For NC(=O)CC[C@H](N)C(=O)O [glutamine], which “reactivation of wild-type virus from latency (wells positive for cytopathic effect)” value ([1]; TG incubated in 0 mM Gln (FIG. 16)) is on record?
**A.** reactivated more rapidly and to the same extent as heat-shocked TG

**Q.** And the “reactivation of wild-type virus from latency (wells positive for cytopathic effect)” value ([1]; TG incubated in the presence of 2 mM Gln (FIG. 16))?
**A.** significantly reduced reactivation

**Q.** What about the “units of infectious herpesvirus on the ocular surface vs untreated heat-stressed animals” value (HSV-1 (KOS strain)) of the same compound?
**A.** statistically significantly lower units of infectious herpesvirus

**Q.** For CC[C@H](C)[C@H](N)C(=O)O [isoleucine], which “effect of deprivation/refeeding on plating efficiency of ICP0- virus” value (ICP0^− virus (n212)) is on record?
**A.** little or no effect

**Q.** What about the “increase of ICP0 promoter-CAT expression” value (ICP0 promoter-CAT [2]) of the same compound?
**A.** 6 fold

**Q.** And the “increase of ICP4 promoter-CAT expression” value (ICP4 promoter-CAT [3])?
**A.** 4 fold

**Q.** What about the “increase of ICP0 promoter-CAT expression” value (ICP0 promoter-CAT [4]) of the same compound?
**A.** 6 fold

**Q.** And the “increase of ICP22/47 promoter-CAT expression” value (ICP22/47 promoter-CAT)?
**A.** 5 fold

**Q.** What about the “increase of ICP4 promoter-CAT expression” value (ICP4 promoter-CAT [5]) of the same compound?
**A.** 10 fold

**Q.** What about the “increase in number of plaques produced by the ICP0- virus” value (ICP0^− (7134) virus) of the same compound?
**A.** 6 fold

**Q.** And the “number of plaques produced by wild type virus” value (wt (KOS) virus)?
**A.** same number of plaques at all time points tested

**Q.** Which “effect of deprivation/refeeding on plating efficiency of ICP0- virus” value (ICP0^− virus (n212)) does the source give for NCCCC[C@H](N)C(=O)O [lysine, L-lysine] here?
**A.** slight enhancement; also recorded: slight increase

**Q.** What about the “enhancement of plating efficiency of ICP0- virus by deprivation/refeeding” value (ICP0^− virus (n212); separate experiment) of the same compound?
**A.** 2-3 fold

**Q.** What about the “replication efficiency of HSV in cell culture” value (HSV) of the same compound?
**A.** decrease the replication efficiency
